From patent publication US8293705B2, “HCV protease inhibitors and uses thereof” (Avila Therapeutics, Inc., priority 2007, dated 2012)
Where “and” joins values, the source holds several entries; their conditions need not be identical. Equal entries are not always repeated.

Legend:
[1] = molecular target: T1, HCV NS3/4A 1b protease A156T (Hepatitis C virus genotype 1b, UniProt Q9WMX2, A1182T); assay: HCV protease FRET assay (IC50), Example 15; assay type: biochemical; settings: Inhibition (IC50), HCV A156T, FRET, 30 min pre-incubation at 25° C.
T1 construct: 10× stocks of NS3/4A protease enzyme from Bioenza (Mountain View, Calif.); purchased Bioenza (Mountain View, Calif.)
Procedure: (§1) The following protocol was used to generate IC50 values as depicted for compound 239 in Table 4, above. The protocol is a modified FRET-based assay (v—02) from In Vitro Resistance Studies of HCV Serine Protease Inhibitors, 2004, JBC, vol. 279, No. 17, pp 17508-17514.
(§2) 10× stocks of NS3/4A protease enzyme from Bioenza (Mountain View, Calif.) and 1.13× 5-FAM/QXL™520 FRET peptide substrate from Anaspec (San Jose, Calif.) were prepared in 50 mM HEPES, pH 7.8, 100 mM NaCl, 5 mM DTT and 20% glycerol. 5 μL of each enzyme were pre-incubated in a Corning (#3573) 384-well, black, non-treated microtiter plate (Corning, N.Y.) for 30 min at 25° C. with a 0.5 μL volume of 50% DMSO and serially diluted compounds prepared in 50% DMSO. Protease reactions were started with the addition of 45 μL of the FRET substrate and monitored for 120 minutes at λex487/λem514 through Quad^4 monochromoters in a Synergy^4 plate reader from BioTek (Winooski, Vt.). At the conclusion of each assay, progress curves from each well were examined for linear reaction kinetics and fit statistics (R^2, absolute sum of squares). Initial velocity (0 minutes to 30+ minutes) from each reaction was determined from the slope of a plot of relative fluorescence units vs time (minutes) and then plotted against inhibitor concentration to estimate IC50 from log [Inhibitor] vs Response, Variable Slope model in GraphPad Prism from GraphPad Software (San Diego, Calif.).
(§3) The compound numbers correspond to the compound numbers in Table 3. […] ;

[2] = molecular target: T2, HCV NS3/4A 1b protease D168A (Hepatitis C virus genotype 1b, UniProt Q9WMX2, D1194A); assay: HCV protease FRET assay (IC50), Example 15; assay type: biochemical; settings: Inhibition (IC50), HCV D168A, FRET, 30 min pre-incubation at 25° C.
T2 construct: 10× stocks of NS3/4A protease enzyme from Bioenza (Mountain View, Calif.); purchased Bioenza (Mountain View, Calif.)
Procedure: as §1, §2, §3

[3] = molecular target: T3, HCV NS3/4A 1b protease wild type (Hepatitis C virus genotype 1b, UniProt Q9WMX2); assay: HCV protease FRET assay (IC50), Example 15; assay type: biochemical
T3 construct: 10× stocks of NS3/4A protease enzyme from Bioenza (Mountain View, Calif.); purchased Bioenza (Mountain View, Calif.)
Procedure: as §1, §2, §3

[4] = molecular target: T1, HCV NS3/4A 1b protease A156T; assay: HCV protease FRET assay (IC50_APP), Example 16; assay type: biochemical
[5] = molecular target: T2, HCV NS3/4A 1b protease D168A; assay: HCV protease FRET assay (IC50_APP), Example 16; assay type: biochemical
[6] = molecular target: T3, HCV NS3/4A 1b protease wild type; assay: HCV protease FRET assay (IC50_APP), Example 16; assay type: biochemical
[7] = system: HCV RNA replicon in cell line ET (luc-ubi-neo/ET), human Huh7 hepatoma; assay: HCV RNA replicon assay, Example 14 Method A; assay type: cell-based; settings: Hepatitis C virus, Huh-7, assay of Example 14, 72 hr; for IC50: read-out: Inhibition, Replicon (IC50); for IC90: read-out: Inhibition, Replicon, IC90 value
Procedure: The compounds were assayed to evaluate the antiviral activity and cytotoxicity of compounds in vitro using HCV RNA replicons. This assay used the cell line ET (luc-ubi-neo/ET), which is a human Huh7 hepatoma cell line that contains an HCV RNA replicon with a stable luciferase (Luc) reporter and three cell culture-adaptive mutations. […]
The ET cell line was grown in Dulbecco's modified essential media (DMEM), 10% fetal bovine serum (FBS), 1% penicillin-streptomycin (pen-strep), 1% glutamine, 250 μg/mL G418 in a 5% CO2 incubator at 37° C. All cell culture reagents were obtained from Mediatech (Manassas, Va.). Cells were trypsinized (1% trypsin:EDTA) and plated out at 5×10^3 cells/well in white 96-well assay plates (Costar) dedicated to cell number (cytotoxicity) or antiviral activity assessments. Drugs were added at six 3-fold concentrations each and the assay was run in DMEM, 5% FBS, 1% pen-strep, 1% glutamine. Human interferon alpha-2b (PBL Biolabs, New Brunswick, N.J.) was included in each run as a positive control compound. Cells were processed 72 hr post drug addition when the cells are still subconfluent. Antiviral activity was measured by analyzing replicon-derived luciferase activity using the Steady-Glo Luciferase Assay System (Promega, Madison, Wis.) according to manufacturer's instruction. The number of cells in each well was determined by CytoTox-1 reagent (Promega). Compound profile was derived by calculating applicable EC50 (effective concentration inhibiting virus replication by 50%), EC90 (effective concentration inhibiting virus replication by 90%), IC50 (concentration decreasing cell viability by 50%) and SI50 (selective index: […]) values.

HCV NS3/4A wild type = molecular target: T4, HCV NS3/4A wild type (Hepatitis C virus genotype 1b, UniProt Q9WMX2); assay: Mass spectrometric analysis of covalent modification (MALDI-TOF); assay type: binding; settings: 10× excess of test compound to protein; MALDI-TOF
T4 construct: HCV NS3/4A wild type (wt) was incubated for 1 hr at a 10× fold access of test compound to protein; purchased Bioenza, Calif
Procedure: Mass spectrometric analysis of HCV wild type or HCV variant C159S in the presence of test compound is performed. 100 pmols of HCV wild type (Bioenza, Calif.) is incubated with test compound for 1 hr and 3 hrs at 10-fold access of test compound to protein. 1 ul aliquots of the samples (total volume of 4.24 ul) are diluted with 10 ul of 0.1% TFA prior to micro C4 ZipTipping directly onto the MALDI target using Sinapinic acid as the desorption matrix (10 mg/mL in 0.1% TFA:Acetonitrile 50:50). Analyses are performed on a Shimadzu Biotech Axima TOF2 (Shimadzu Instruments) matrix-assisted-laser desorption/ionization Time-of-Flight (MALDI-TOF) mass spectrometer. The same procedure is carried out on 100 pmols of HCV C159S mutant of HCV protease for 3 hrs at 10-fold excess of test compound to protein.
As depicted in FIGS. 1 and 2, mass spectrometric analysis of HCV wild type in the presence of test compounds I-1 and I-25 was performed using the following protocol: HCV NS3/4A wild type (wt) was incubated for 1 hr at a 10× fold access of test compound to protein. 2 ul aliquots of the samples were diluted with 10 ul of 0.1% TFA prior to micro C4 ZipTipping directly onto the MALDI target using Sinapinic acid as the desorption matrix (10 mg/ml in 0.1% TFA:Acetonitrile 50:50). For intact protein mass measurement the instrument was set in linear mode using a pulsed extraction setting of 24,500 and apomyoglobin as the standard to calibrate the instrument.

HCV NS3/4A D168A = HCV NS3/4A D168A (Hepatitis C virus genotype 1b, UniProt Q9WMX2, D1194A); assay: Mass spectrometric analysis of covalent modification; assay type: binding; settings: methods described in Example 18
Procedure: HCV is incubated with test compound for 3 hrs prior to tryptic digestion. Todoacetamide is used as the alkylating agent after compound incubation. For tryptic digests a 2 ul aliquot (0.06 ug/ul) is diluted with 10 ul of 0.1% TFA prior to micro C18 Zip Tipping directly onto the MALDI target using alpha cyano-4-hydroxy cinnamic acid as the matrix (5 mg/mL in 0.1% TFA:Acetonitrile 50:50).
For tryptic digests the instrument is set in Reflectron mode with a pulsed extraction setting of 1800. Calibration is done using the Laser Biolabs Pep Mix standard (1046.54, 1296.69, 1672.92, 2093.09, 2465.20). For CID/PSD analysis the peptide is selected using cursors to set ion gate timing and fragmentation occurred at a laser power about 20% higher and He is used as the collision gas for CID. Calibration for fragments is done using the P14R fragmentation calibration for the Curved field Reflectron.
As depicted in FIGS. 4, 5, 6, and 7, mass spectrometric analysis of HCV mutants in the presence of compound I-11 was performed. […] 2 ul aliquots of the samples were diluted with 10 ul of 0.1% TFA prior to micro C4 ZipTipping directly onto the MALDI target using Sinapinic acid as the desorption matrix (10 mg/ml in 0.1% TFA:Acetonitrile 50:50). […]

[8] = molecular target: T5, NS3 protease self-cleavage in Huh-7-Luc-Neo-ET replicon cells (Hepatitis C virus genotype 1b, UniProt Q9WMX2, E1202G/T1280I); assay: Inhibition of protease self cleavage in replicon cells (washout); assay type: cell-based; settings: 16 hours incubation, then removed
T5 construct: blotted with polyclonal anti NS3 antibody (Bioenza, Calif.)
Procedure: Huh-7-Luc-Neo-ET cells were plated in Replicon Assay Medium (RPMI supplemented with 5% FBS, 1× non-essential amino acids and pen/strep) at a density of 1×10^5 cells/well in 12 well plates. Eight hours later the media was removed and replaced with 1 ml media containing test compound (5 wells per compound) and 0.02% DMSO and the cells were returned to the incubator overnight. Sixteen hours later 1 well from each compound and 1 untreated well were washed with PBS, then lysed and scraped into 30 ul of Cell Extraction Buffer (Biosource, Camarillo, Calif.) plus Complete Protease Inhibitor (Roche, Indianapolis, Ind.). The remaining wells were rinsed 2× with PBS then fed with Replicon Media and returned to the incubator. […]
Cell lysates were separated by SDS-Page (4-20%) and transferred to Immobilon-P PVDF membrane (Millipore Corporation, MA) and blotted with polyclonal anti NS3 antibody (Bioenza, Calif.). Blots were scanned on an Odyssey infrared scanner from Licor and the FL band and cleavage products were quantified separately using the Licor software provided with the scanner. The cleavage product was calculated as a percentage of the total NS3 in each sample and then normalized to the DMSO control so that the DMSO control reflects 100% activity.

C=CC(=O)NCC(=O)N1C[C@H](OC(=O)N2Cc3cccc(F)c3C2)C[C@H]1C(=O)N[C@]1(C(=O)NS(=O)(=O)C2CC2)C[C@H]1C=C [Compound I-6, (3R,5S)-1-(2-acrylamidoacetyl)-5-((1R,2S)-1-(cyclopropylsulfonylcarbamoyl)-2-vinylcyclopropylcarbamoyl)pyrrolidin-3-yl 4-fluoroisoindoline-2-carboxylate]
IC50 [1]: < 0.01 µM
IC50 [2]: 0.01 to 0.1 µM
IC50 [3]: < 0.01 µM
IC50 [4]: < 0.01 µM
IC50 [5]: 0.1 to 1 µM
IC50 [6]: < 0.01 µM
IC50 [7]: 0.1 to 1 µM
IC90 [7]: 1 to 10 µM
Covalent modification of HCV NS3/4A wild type (HCV NS3/4A wild type): measurable covalent modification

C=C[C@@H]1C[C@]1(NC(=O)[C@@H]1C[C@@H](OC(=O)N2Cc3cccc(F)c3C2)CN1C(=O)CNC(=O)/C=C/C)C(=O)NS(=O)(=O)C1CC1 [Compound I-7, (3R,5S)-1-(2-(E)-but-2-enamidoacetyl)-5-((1R,2S)-1-(cyclopropylsulfonylcarbamoyl)-2-vinylcyclopropylcarbamoyl)pyrrolidin-3-yl-4-fluoroisoindoline-2-carboxylate]
IC50 [2]: 1 to 10 µM
IC50 [3]: 0.01 to 0.1 µM
IC50 [4]: 0.1 to 1 µM
IC50 [5]: 1 to 10 µM
IC50 [6]: 0.1 to 1 µM

C=CC(=O)NC[C@H](NC(=O)OC1CCCC1)C(=O)N1C[C@H](OC(=O)N2Cc3cccc(F)c3C2)C[C@H]1C(=O)N[C@]1(C(=O)NS(=O)(=O)C2CC2)C[C@H]1C=C [Compound I-19, (3R,5S)-1-((S)-3-acrylamido-2-(cyclopentyloxycarbonylamino)propanoyl)-5-((1R,2S)-1-(cyclopropylsulfonylcarbamoyl)-2-vinylcyclopropylcarbamoyl)pyrrolidin-3-yl 4-fluoroisoindoline-2-carboxylate]
IC50 [4]: < 0.01 µM
IC50 [5]: 0.01 to 0.1 µM
IC50 [6]: < 0.01 µM
Covalent modification of HCV NS3/4A wild type (HCV NS3/4A wild type): measurable covalent modification
Covalent modification of HCV NS3/4A D168A (HCV NS3/4A D168A): measurable covalent modification

C=CC(=O)O[C@H](C)[C@H](NC(=O)OC(C)(C)C)C(=O)N1C[C@H](OC(=O)N2Cc3cccc(F)c3C2)C[C@H]1C(=O)N[C@]1(C(=O)NS(=O)(=O)C2CC2)C[C@H]1C=C [Compound I-24, (3R,5S)-1-((2S,3R)-3-(acryloyloxy)-2-(tert-butoxycarbonylamino)butanoyl)-5-((1R,2S)-1-(cyclopropylsulfonylcarbamoyl)-2-vinylcyclopropylcarbamoyl)pyrrolidin-3-yl 4-fluoroisoindoline-2-carboxylate]
IC50 [4]: < 0.01 µM
IC50 [5]: < 0.01 µM
IC50 [6]: < 0.01 µM
IC50 [7]: 0.01 to 0.1 µM
IC90 [7]: 0.1 to 1 µM
Covalent modification of HCV NS3/4A wild type (HCV NS3/4A wild type): measurable covalent modification
Covalent modification of HCV NS3/4A D168A (HCV NS3/4A D168A): measurable covalent modification

CCC[C@H](NC(=O)[C@@H]1[C@H]2CCC[C@H]2CN1C(=O)[C@@H](NC(=O)[C@@H](NC(=O)c1cnccn1)C1CCCCC1)C(C)(C)C)C(=O)C(=O)NC1CC1 [VX-950]
Time to virtually complete return of NS3 self-cleaving activity after drug removal [8]: 4 h and 8 h
